Holding throughout (assay): relative viability (nuclei count vs DMSO), 5 days (fraction); higher = more cells survive
Compound in the assay “Ibrutinib + Lapatinib”: C=CC(=O)N1CCC[C@@H](n2nc(-c3ccc(Oc4ccccc4)cc3)c3c(N)ncnc32)C1 [Ibrutinib] + CS(=O)(=O)CCNCc1ccc(-c2ccc3ncnc(Nc4ccc(OCc5cccc(F)c5)c(Cl)c4)c3c2)o1 [Lapatinib] (partner 2 µM)
A digest of the protocol: (§1)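 For relative viability, nuclei counts in treated wells were divided by those in vehicle wells. Lung cancer cell lines had been pin-tool dosed in 1536-well plates the day after seeding and cultured for 5 days, then fixed and stained in one step (final 0.05% Triton X-100, 1% formaldehyde, 1 ug/ml Hoechst) and imaged at 4×. Doses were one drug alone or a fixed anchor-drug dose plus five library-drug doses (not always all listed) in √10 steps, and values are duplicate-plate medians.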

Compound in the assay “BMX-IN-1 + Palbociclib”: C=CC(=O)Nc1cc(-n2c(=O)ccc3cnc4ccc(-c5ccc(NS(C)(=O)=O)cc5)cc4c32)ccc1C [BMX-IN-1] + CC(=O)c1c(C)c2cnc(Nc3ccc(N4CCNCC4)cn3)nc2n(C2CCCC2)c1=O [Palbociclib] (partner 0.5 µM)
A digest of the protocol:
as §1

Compound in the assay “BMX-IN-1 + OSI-027”: C=CC(=O)Nc1cc(-n2c(=O)ccc3cnc4ccc(-c5ccc(NS(C)(=O)=O)cc5)cc4c32)ccc1C [BMX-IN-1] + COc1cccc2cc(-c3nc([C@H]4CC[C@H](C(=O)O)CC4)n4ncnc(N)c34)[nH]c12 [OSI-027] (partner 0.5 µM)
A digest of the protocol: as §1

Compound in the assay “PAC-1 + OSI-027”: C=CCc1cccc(/C=N/NC(=O)CN2CCN(Cc3ccccc3)CC2)c1O [PAC-1] + COc1cccc2cc(-c3nc([C@H]4CC[C@H](C(=O)O)CC4)n4ncnc(N)c34)[nH]c12 [OSI-027] (partner 0.5 µM)
A digest of the protocol:
as §1

For the cell line SK-MES-1, the relative viability in the assay with Ibrutinib + Lapatinib (first compound 0.005 µM) was 0.506; with Ibrutinib + Lapatinib (first compound 0.01581 µM) it was 0.456; with Ibrutinib + Lapatinib (first compound 0.05 µM), 0.461; with Ibrutinib + Lapatinib (first compound 0.1581 µM), 0.446; in the assay with Ibrutinib + Lapatinib (first compound 0.5 µM), 0.441; in the assay with BMX-IN-1 + Palbociclib (first compound 0.02 µM), 0.303. For the same cell line, the relative viability in the assay with BMX-IN-1 + Palbociclib (first compound 0.2 µM) worked out at 0.333; with BMX-IN-1 + Palbociclib (first compound 0.6325 µM) it was 0.355; in the assay with BMX-IN-1 + Palbociclib (first compound 2 µM) it was 0.271; in the assay with BMX-IN-1 + OSI-027 (first compound 0.02 µM), 0.783; with BMX-IN-1 + OSI-027 (first compound 0.2 µM) it was 0.645; with BMX-IN-1 + OSI-027 (first compound 0.6325 µM), 0.757. Moreover, the relative viability with BMX-IN-1 + OSI-027 (first compound 2 µM) was 0.239; with PAC-1 + OSI-027 (first compound 0.02 µM) it was 0.651; in the assay with PAC-1 + OSI-027 (first compound 0.06325 µM), 0.636; with PAC-1 + OSI-027 (first compound 0.2 µM), 0.533; with PAC-1 + OSI-027 (first compound 2 µM) it was 0.645.

The values are drawn from the supplement of paper PMC10307832.
